The subject of the test is NO production in LPS-stimulated RAW 264.7 macrophage cells. In words: Inhibition of nitric oxide (NO) production in LPS-stimulated murine macrophages (RAW 264.7), Griess reagent. In kind it is cell-based. To be noted: 3 h pre-treatment, then 5 ng/ml LPS overnight; FO 15 μM, DIM 15 μM, BC-concentrated TQ 10 μM; FIG. 3. How it is done: These two different BC preparations were then tested for their ability to inhibit NO production, in accordance with the method described hereinbelow in Example 4.
BC-concentrated TQ (obtained from TriNutra. Ness Ziona, Israel), Omega-3 oil (fish oil—FO) and Diindolylmethane (DIM) were tested on a macrophage murine cellular system (RAW 264.7) before stimulation with Lipopolysaccharide (LPS), an endotoxin which induces a strong response from normal animal immune systems.
Cells were thawed, grown and managed according to standard protocols.
On Day 0, cells were seeded in 6-well plates at concentrations of 6×10^5. Volume of medium per well was 2 ml. Cells were seeded in triplicates for each treatment and for each control.
Culture Medium • 10% FCS, 1% Penicillin-Streptomycin Solution, 2% Glutamine 2% were added to DMEM (final volume −500 ml) and filtered. Medium was kept at 2-8° C. until use.
10 mg LPS was dissolved in 10 ml sterile water aliquoted and kept at −20° C.
Before use 1 aliquot was defrosted and diluted in culture media to final concentration of 5 ng/ml.
MW of Fish oil 300 g/mol.
Test items were dissolved in 100% ethanol to form 100 mM concentration.
Further dilutions were made in culture medium. 10% of test item in concentration×10 was added to each well according to study plan.
Stock solution (100 mM) was prepared in 100% DMSO. […]

For the compound `c1ccc2c(Cc3c[nH]c4ccccc34)c[nH]c2c1` [DIM, 3,3′-Diindolylmethane], the “inhibition of NO production when tested separately” value is “caused inhibition of NO production”.

The record behind these values is patent publication US11426365B2, “Compositions comprising thymoquinone and omega-3 fatty acids” (TRINUTRA LTD., priority 2017, dated 2022).
